The test system of assay [1] is Aspergillus flavus ATCC 64025. Description: In vitro antifungal activity (MIC), NCCLS method. Type of assay: cell-based. The conditions noted are these: 48 hours. From the text: (§1) Candida albicans ATCC 10231, Candida lusitaniae ATCC 42720, Candida krusei ATCC 6258, Candida tropicalis ATCC 13803, Candida glabrata ATCC 48435, Candida parapsilosis ATCC 34136, Cryptococcus neoformans ATCC 36556, Aspergillus fumigatus ATCC 16424, Aspergillus flavus ATCC 64025, Aspergillus terreus ATCC 46941 and Mucor ramosissimus ATCC 90286 strains for the MIC (minimum inhibitory concentration) measurement were obtained from ATCC (American Type Culture Collection) in the U.S. The Candida albicans A207(clinical isolate) strain was used by isolating it from the patients.
(§2) The determination of MIC was performed according to the NCCLS (National Committee for Clinical Laboratory Standard) method. Each test sample solution was diluted two-fold and inoculated with a fungal suspension to reach a final inoculum size of 5×10^2 to 2.5×10^3 cell/mL. The Cryptococcus neoformans strain was cultured in the RPMI 1640 medium for 72 hours. Other strains were cultured for 48 hours.

The test system of assay [2] is Aspergillus fumigatus ATCC 16424. Briefly: In vitro antifungal activity (MIC), NCCLS method. The assay is classed as cell-based. The conditions noted are these: 48 hours.
From the text: as §1, §2

For assay [3], the system named is Aspergillus terreus ATCC 46941. Briefly: In vitro antifungal activity (MIC), NCCLS method. The assay is classed as cell-based. The conditions noted are these: 48 hours.
From the text: as §1, §2

Assay [4] concerns Candida albicans A207 (clinical isolate). Briefly: In vitro antifungal activity (MIC), NCCLS method. The conditions noted are these: 48 hours. The assay is classed as cell-based.
From the text: as §1, §2

Assay [5] has as its system Candida albicans ATCC 10231. Briefly: In vitro antifungal activity (MIC), NCCLS method. The conditions noted are these: 48 hours. The assay is classed as cell-based.
From the text: as §1, §2

Assay [6] concerns Candida glabrata ATCC 48435. Description: In vitro antifungal activity (MIC), NCCLS method. The assay is classed as cell-based. The conditions noted are these: Candida glabrata ATCC 48435; 48 hours.
From the text: as §1, §2

For another assay, the system named is Candida krusei ATCC 6258. Briefly: In vitro antifungal activity (MIC), NCCLS method. Type of assay: cell-based. The conditions noted are these: 48 hours.
From the text: as §1, §2

The subject of assay [7] is Candida lusitaniae ATCC 42720. Briefly: In vitro antifungal activity (MIC), NCCLS method. The conditions noted are these: 48 hours. Type of assay: cell-based.
From the text: as §1, §2

In assay [8] the test system is Candida parapsilosis ATCC 34136. Description: In vitro antifungal activity (MIC), NCCLS method. Type of assay: cell-based. The conditions noted are these: Candida parapsilosis ATCC 34136; 48 hours.
From the text: as §1, §2

The test system of assay [9] is Candida tropicalis ATCC 13803. Description: In vitro antifungal activity (MIC), NCCLS method. The conditions noted are these: 48 hours. The assay is classed as cell-based.
From the text: as §1, §2

In assay [10] the test system is Cryptococcus neoformans ATCC 36556. Briefly: In vitro antifungal activity (MIC), NCCLS method. The assay is classed as cell-based. The conditions noted are these: RPMI 1640 medium, 72 hours.
From the text: as §1, §2

Assay [11] relates to Mucor ramosissimus ATCC 90286. Description: In vitro antifungal activity (MIC), NCCLS method. The assay is classed as cell-based. The conditions noted are these: 48 hours.
From the text: as §1, §2

Assay [12] addresses T1, chitin synthase 1 of Candida albicans chs2 Δ chs 3 Δ (Candida albicans, UniProt P23316).
T1 construct: Crude enzyme was prepared using the Candida albicans chs2 Δ chs 3 Δ mutant; endogenous in cells; host or cells: Candida albicans chs2Δ/chs2Δ chs3Δ/chs3Δ mutant; 130,000 x g membrane pellet
Briefly: In vitro enzyme assay for chitin synthase 1 of Candida albicans (enzyme 1). Type of assay: biochemical. The conditions noted are these: relative to polyoxin D (50% inhibitory activity = value 5). The protocol:
Crude enzyme was prepared using the Candida albicans chs2 Δ chs 3 Δ mutant (chs2 Δ::hisG/chs2 Δ::hisG chs3 Δ::hisG/chs3 Δ::hisG) strain, which can only produce the chitin synthase 1. The strain was inoculated with the SDA (Sabouraud dextrose agar) culture medium (4% dextrose, 1% peptone, pH 5.6) and cultured at 30° C. for 15-17 hours until the absorbance at 550nm reaches 0.7. The cells were collected and suspended in a 50 mM Tris-HCl (pH 7.5) buffer solution containing 5 mM magnesium acetate. After centrifugation at 8,000×g for 10 minutes, the pellets were suspended in the same Tris-HCl buffer solution. The suspension was divided into aliquots in 50 mL conical test tubes. After adding glass beads, the cells were disrupted by vigorously vortexing with an interval of 30 seconds. The cell residues were removed by centrifuging at 3,000×g for 5 minutes. The supernatant was ultra-centrifuged at 130,000×g for 1 hour. The resultant pellets were collected and suspended in 50 mM Tris-HCl (pH 7.5) containing 33% glycerol, to a final volume of 1.6 mg/g (wet weight) of yeast used. The suspension was divided into aliquots and kept at −70° C. until it is used.
(§3) The inhibitory activities against the chitin synthase 1 of Candida albicans chs2 Δ chs 3 Δ (abbreviated as ‘enzyme 1’) and the chitin synthase 2 of Saccharomyces cerevisiae ECY38-38A(pAS6)(abbreviated as ‘enzyme 2’) was examined for compound Nos. 1 to 70 compound and polyoxin D, a positive control compound.
(§4) The inhibitory activity against the chitin synthase 1 prepared from Candida albicans and the chitin synthase 2 prepared from Saccharomyces cerevisiae were examined as follows. A reaction mixture containing 32 mM Tris-HCl (pH 7.5), 2 mM cobalt acetate, 1.1 mM UDP-[U-^14C]-N-acetyl-d-glucosamine (GlcNAc) (400,000 cpm/μmol), 2 μL of trypsin (0.75 mg/mL), 20 μL of each crude enzyme and 14 μL of each test sample was kept at 30° C. for 15 minutes to activate the enzyme. Then, 2 μL of trypsin inhibitor (1.5 mg/mL) was added and the mixture was kept in an ice bath for 10 minutes to deactivate trypsin. 2 μL of 0.8 M N-acetyl-d-glucosamine was added to a total volume of 50 μL and reaction was performed at 30° C. for 90 minutes. The reaction was stopped using 1 mL of 10% TCA solution and the reaction solution was filtered with a GF/C filter and dried at room temperature. After adding 3 mL of a scintillation cocktail solution, the amount of isotopes was measured using a liquid scintillation counter. Percentage inhibition against each enzyme was calculated by the following Equation 1.
(§5) The control group was not added with a test sample in the reaction mixture and that of the untreated group contained neither the test sample nor the crude enzyme.
(§6) A 50% inhibitory activity of polyoxin D against the enzyme was given the value 5. A compound having the same inhibitory activity as that of polyoxin D at the same concentration was given the value 5. Compounds having the inhibitory activity at 2-fold, 4-fold, 8-fold and 16-fold higher concentrations than that of polyoxin D were given the values of 4, 3, 2 and 1, respectively. On the other hand, compounds having the inhibitory activity at ½, ¼ and ⅛ lower concentrations than that of polyoxin D were given the values of 6, 7 and 8, respectively.

The target in assay [13] is T2, chitin synthase 2 of Saccharomyces cerevisiae ECY38-38A(pAS6) (Saccharomyces cerevisiae, UniProt P14180).
T2 construct: made in house; host or cells: Saccharomyces cerevisiae ECY38-38A (chs1-23 chs2::LEU2 cal1/csd2) carrying plasmid pAS6, grown in galactose medium; 130,000 x g membrane pellet
T2 sequence (P14180 whole entry): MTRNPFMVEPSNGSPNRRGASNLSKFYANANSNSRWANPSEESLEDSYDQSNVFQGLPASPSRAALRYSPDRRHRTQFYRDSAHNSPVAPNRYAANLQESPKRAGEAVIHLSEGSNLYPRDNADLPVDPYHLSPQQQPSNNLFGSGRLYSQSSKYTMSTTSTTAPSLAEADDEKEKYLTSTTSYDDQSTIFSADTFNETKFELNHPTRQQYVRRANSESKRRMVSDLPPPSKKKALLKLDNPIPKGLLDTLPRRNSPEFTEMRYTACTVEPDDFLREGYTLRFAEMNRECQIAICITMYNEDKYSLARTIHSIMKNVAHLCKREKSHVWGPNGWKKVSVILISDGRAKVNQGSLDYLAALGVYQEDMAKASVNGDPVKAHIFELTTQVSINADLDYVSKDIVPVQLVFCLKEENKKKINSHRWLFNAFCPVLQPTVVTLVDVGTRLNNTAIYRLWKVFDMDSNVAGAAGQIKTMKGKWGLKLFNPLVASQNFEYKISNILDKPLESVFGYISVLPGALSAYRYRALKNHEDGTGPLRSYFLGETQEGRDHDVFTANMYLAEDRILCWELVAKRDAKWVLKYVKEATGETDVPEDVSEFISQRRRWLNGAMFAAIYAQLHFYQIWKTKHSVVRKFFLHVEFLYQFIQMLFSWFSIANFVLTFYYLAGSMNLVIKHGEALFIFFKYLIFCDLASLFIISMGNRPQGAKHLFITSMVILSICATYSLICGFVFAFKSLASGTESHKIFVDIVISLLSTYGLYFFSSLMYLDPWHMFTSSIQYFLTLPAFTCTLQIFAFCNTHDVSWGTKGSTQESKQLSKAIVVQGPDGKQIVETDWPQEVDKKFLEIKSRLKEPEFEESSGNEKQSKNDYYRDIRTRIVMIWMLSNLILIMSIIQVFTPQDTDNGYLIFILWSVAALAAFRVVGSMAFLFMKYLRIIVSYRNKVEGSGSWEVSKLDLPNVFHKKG
Briefly: In vitro enzyme assay for chitin synthase 2 of Saccharomyces cerevisiae (enzyme 2). Type of assay: biochemical. The conditions noted are these: relative to polyoxin D (50% inhibitory activity = value 5). The protocol: Crude enzyme was prepared using the recombinant Saccharomyces cerevisiae ECY38-38A(pAS6) (MATa chs1-23 chs2::LEU2 cal 1/csd 2 ura 3-52 trp 1-1 leu 2-2 pAS6) strain, which can produce the chitin synthase 2 only. The strain was inoculated with the YPG culture medium (1% yeast extract, 2% peptone, 2% galactose) and cultured at 30° C. overnight. Then, it was inoculated with a fresh YPG culture medium and cultured for 15-17 hours until the Absorbance at 550 nm reaches 1.0. The cells were collected and suspended in 50 mM Tris-HCl (pH 7.5) buffer containing 5 mM magnesium acetate. After centrifugation at 8,000×g for 10 minutes, the pellets were suspended in the same Tris-HCl buffer solution. The suspension was divided into aliquots in 50 mL conical test tubes. After adding the glass beads, the cells were disrupted by vigorously vortexing with an interval of 30 seconds. The cell residues were removed by centrifuging at 3,000×g for 5 minutes. The supernatant was ultra-centrifuged at 130,000×g for 1 hour. The resultant pellets were collected and suspended in 50 mM Tris-HCl (pH 7.5) containing 33% glycerol, to a final volume of 1.6 mg/g (wet weight) of yeast used. The suspension was divided into aliquots and kept at −70° C. until it is used.
as §3, §4, §5, §6

In brackets after ≈: the same amount, converted by molar mass.

T1 sequence (P23316 whole entry, stated change not applied): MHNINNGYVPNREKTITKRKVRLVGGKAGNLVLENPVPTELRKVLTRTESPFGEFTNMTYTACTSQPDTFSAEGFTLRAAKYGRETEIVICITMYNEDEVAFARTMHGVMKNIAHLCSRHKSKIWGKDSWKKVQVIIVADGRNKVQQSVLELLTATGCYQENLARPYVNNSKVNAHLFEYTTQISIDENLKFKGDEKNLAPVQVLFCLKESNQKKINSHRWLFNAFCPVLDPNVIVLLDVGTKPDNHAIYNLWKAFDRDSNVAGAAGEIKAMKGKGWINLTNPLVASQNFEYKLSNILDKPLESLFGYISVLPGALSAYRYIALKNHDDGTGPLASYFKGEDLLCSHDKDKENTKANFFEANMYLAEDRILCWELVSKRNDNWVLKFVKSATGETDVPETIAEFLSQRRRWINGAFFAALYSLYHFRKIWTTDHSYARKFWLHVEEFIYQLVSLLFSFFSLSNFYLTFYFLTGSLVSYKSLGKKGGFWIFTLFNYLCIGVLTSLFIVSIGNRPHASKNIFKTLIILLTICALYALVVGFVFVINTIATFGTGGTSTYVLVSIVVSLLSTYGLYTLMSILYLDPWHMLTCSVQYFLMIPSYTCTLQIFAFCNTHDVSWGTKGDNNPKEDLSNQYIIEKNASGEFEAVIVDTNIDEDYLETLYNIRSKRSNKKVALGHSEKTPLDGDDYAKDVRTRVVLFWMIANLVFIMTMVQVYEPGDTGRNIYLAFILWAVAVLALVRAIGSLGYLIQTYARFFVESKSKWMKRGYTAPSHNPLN

With `C[C@@H]1[C@H](O)[C@@H](C)/C=C/C=C/C=C/C=C/C=C/C=C/C=C/[C@H](O[C@@H]2O[C@H](C)[C@@H](O)[C@H](N)[C@@H]2O)C[C@@H]2O[C@](O)(C[C@@H](O)C[C@@H](O)[C@H](O)CC[C@@H](O)C[C@@H](O)CC(=O)O[C@H]1C)C[C@H](O)[C@H]2C(=O)O` [amphotericin B, reference compound], the “MIC (minimum inhibitory concentration)” value in [1] was 4 µg/mL (≈ 4.33 µM); in assay [2], 1 µg/mL (≈ 1.08 µM); in [3], 16 µg/mL (≈ 17.3 µM); in assay [4] it was 0.5 µg/mL (≈ 0.541 µM); in assay [5], 0.5 µg/mL (≈ 0.541 µM); in [6], 1 µg/mL (≈ 1.08 µM). The “MIC (minimum inhibitory concentration)” value in the assay with Candida krusei ATCC 6258 came to 0.5 µg/mL (≈ 0.541 µM); in assay [7], 1 µg/mL (≈ 1.08 µM); in [8], 0.5 µg/mL (≈ 0.541 µM); in [9] it was 0.5 µg/mL (≈ 0.541 µM); in assay [10], 0.125 µg/mL (≈ 0.135 µM); in [11], 0.5 µg/mL (≈ 0.541 µM).
For `COc1ccc2c(Cc3ccc(C(F)(F)F)cc3)c3[n+](cc2c1OCc1ccc(C(C)(C)C)cc1)CCc1cc2c(cc1-3)OCO2.[Br-]` [Compound No. 38, 13-(4-Trifluoromethylbenzyl)-9-O-(4-tert-butylbenzyl)berberrubine bromide], the “Relative activity Enzyme 1” value in assay [12] was 2 (Compounds having the inhibitory activity at 2-fold, 4-fold, 8-fold and 16-fold higher concentrations than that of polyoxin D were given the values of 4, 3, 2 and 1, respectively). In assay [13], the “Relative activity Enzyme 2” value is on record as 5 (A compound having the same inhibitory activity as that of polyoxin D at the same concentration was given the value 5).
Turning to “13-(4-Trifluoromethoxybenzyl)berberrubine [Compound No. 3]”, the “Relative activity Enzyme 1” value in assay [12] is 1 (Compounds having the inhibitory activity at 2-fold, 4-fold, 8-fold and 16-fold higher concentrations than that of polyoxin D were given the values of 4, 3, 2 and 1, respectively). The “Relative activity Enzyme 2” value in assay [13] was 3 (Compounds having the inhibitory activity at 2-fold, 4-fold, 8-fold and 16-fold higher concentrations than that of polyoxin D were given the values of 4, 3, 2 and 1, respectively).
For the compound “13-(4-Trifluoromethoxybenzyl)-9-O-hexylberberrubine chloride [Compound No. 66]”, the “Relative activity Enzyme 1” value in [12] was 2 (Compounds having the inhibitory activity at 2-fold, 4-fold, 8-fold and 16-fold higher concentrations than that of polyoxin D were given the values of 4, 3, 2 and 1, respectively). For the same compound, in assay [13], the “Relative activity Enzyme 2” value is 5 (A compound having the same inhibitory activity as that of polyoxin D at the same concentration was given the value 5).
As to `COc1cc(Cc2c3[n+](cc4c(OCc5ccc(C(C)(C)C)cc5)c(OC)ccc24)CCc2cc4c(cc2-3)OCO4)cc(OC)c1OC.[Br-]` [Compound No. 32, 13-(3,4,5-Trimethoxybenzyl)-9-O-(4-tert-butylbenzyl)berberrubine bromide], in [12], the “Relative activity Enzyme 1” value was 2 (Compounds having the inhibitory activity at 2-fold, 4-fold, 8-fold and 16-fold higher concentrations than that of polyoxin D were given the values of 4, 3, 2 and 1, respectively). In assay [13], the “Relative activity Enzyme 2” value was 4 (Compounds having the inhibitory activity at 2-fold, 4-fold, 8-fold and 16-fold higher concentrations than that of polyoxin D were given the values of 4, 3, 2 and 1, respectively).
As for “13-(4-Trifluoromethoxybenzyl)-9-O-hexylberberrubine iodide [Compound No. 34]”, in assay [12], the “Relative activity Enzyme 1” value is 2 (Compounds having the inhibitory activity at 2-fold, 4-fold, 8-fold and 16-fold higher concentrations than that of polyoxin D were given the values of 4, 3, 2 and 1, respectively). Moreover, the “Relative activity Enzyme 2” value in assay [13] was 5 (A compound having the same inhibitory activity as that of polyoxin D at the same concentration was given the value 5).
Consider `COc1ccc2c(Cc3ccc(OC(F)(F)F)cc3)c3[n+](cc2c1OCc1ccc(C(C)(C)C)cc1)CCc1cc2c(cc1-3)OCO2.[Br-]` [Compound No. 35, 13-(4-Trifluoromethoxybenzyl)-9-O-(4-tert-butylbenzyl)berberrubine bromide], for which, in [12], the “Relative activity Enzyme 1” value was 2 (Compounds having the inhibitory activity at 2-fold, 4-fold, 8-fold and 16-fold higher concentrations than that of polyoxin D were given the values of 4, 3, 2 and 1, respectively). The “Relative activity Enzyme 2” value in assay [13] was 5 (A compound having the same inhibitory activity as that of polyoxin D at the same concentration was given the value 5).

The record behind these values is patent publication US7915276B2, “Berberrubine derivatives having antifungal activities” (priority 2006, dated 2011).
